Structures can show the parent of a compound that is named as a salt.
Key:
Format in all cases: physicochemical
[1] = pH of the solubility samples
Procedure: The pH was recorded with a Metrohm 913 PH meter, equipped with a WTW SenTix® MIC-B electrode.
(§1) FaSSGF is Fasted State Simulated Gastric Fluid. Solubility is reported in mg/mL.

[2] = Solubility of free base and salt forms; conditions: for solubility compared with the free base: physiological conditions, salt forms versus free base; for solubility at 24 h: thermodynamic from solid
From the text: as §1

[3] = Accelerated aging conditions (AAC; 40° C./75% RH), solids reanalyzed by XRPD; conditions: solid form by XRPD
Procedure: (§2) Next, the resulting solids were combined with another solvent (acetonitrile (AcN) or ethanol) and the resulting mixtures were stirred at room temperature (RT). After stirring, the solids were isolated by centrifugation and part of the solids was harvested on a 96-well plate and dried under ambient conditions. The remaining part of the solids was dried under vacuum (5 mbar [i.e. 500 Pa], RT, 18 h). All solids were analyzed by XRPD, subjected to accelerated aging conditions (AAC; 40° C./75% RH) and reanalyzed by XRPD. The procedure and resulting tosylate forms are shown in the table below, wherein forms were identified by XRD.
as §2, with “chloroform)” for “ethanol)”, “mbar,” for “mbar [i.e. 500 Pa],”, “AAC (accelerated” for “accelerated”, “conditions;” for “conditions (AAC;”, “XRPD.” for “XRPD. The procedure and resulting tosylate forms are shown in the table below, wherein forms were identified by XRD.”
(§3) Next, the resulting solids were combined with another solvent (AcN, diethyl ether, or toluene), and the resulting mixtures were stirred at room temperature (RT). After stirring, the solids were isolated by centrifugation and part of the solids was harvested on a 96-well plate and dried under ambient conditions. The remaining part of the solids was dried under vacuum (5 mbar, RT, 18 h). All solids were analyzed by XRPD, subjected to AAC (40° C./75% RH) and reanalyzed by XRPD.
as §3, with “(1,4-dioxane, acetonitrile, ethyl acetate),” for “(AcN, diethyl ether, or toluene),”
as §3, with “(acetonitrile or” for “(AcN,”, “ether),” for “ether, or toluene),”

[4] = Repeat XRD of amorphous free base from slow evaporation of ethanol solution; conditions: product of slow evaporation of ethanol solution of form I
Procedure: Initial attempts to generate an amorphous form of the free base were conducted by slow evaporation of a form I solution. In particular, form I was dissolved in ethanol according to the chart below and then allowed to slowly evaporate.

[5] = Medium 100 mM phosphate, pH Buffer 6.8

Row | SMILES | pH (30 min) [1, 5] | pH (2 h) [1, 5] | pH (24 h) [1, 5] | pH (30 min) ([1]; Medium FaSSGF, pH Buffer 1.6) | pH (2 h) ([1]; Medium FaSSGF, pH Buffer 1.6) | pH (24 h) ([1]; Medium FaSSGF, pH Buffer 1.6) | Solubility (2 h) [2, 5] [mg/mL] | Solubility (24 h) [2, 5] [mg/mL] | Solubility (2 h) ([2]; Medium FaSSGF, pH Buffer 1.6) [mg/mL] | Solubility (24 h) ([2]; Medium FaSSGF, pH Buffer 1.6) [mg/mL] | solubility compared with the free base [2] | 3 days AAC (XRPD form) [3] | also measured
1 | CCC(CC)c1cc(N[C@H]2CC[C@H](N)C2)n2nccc2n1 [Camsylate II] | 4.1 | 7.4 | 7.5 | 1.6 | 1.7 | 1.7 | 28.9 | 42.2 | >380 | >380 | increased | Form II | 5 days AAC (XRPD form) [3]: Form III
2 | CCC(CC)c1cc(N[C@H]2CC[C@H](N)C2)n2nccc2n1 [Citrate I] | 4.5 | 6.7 | 6.7 | 4.4 | 1.6 | 1.6 | >137 | >137 | >127 | >127 | increased |  | 
3 | CCC(CC)c1cc(N[C@H]2CC[C@H](N)C2)n2nccc2n1 [Free base I, (1S,3S)—N^1—(5-(pentan-3-yl)pyrazolo[1,5-α]pyrimidin-7-yl)cyclopentane-1,3-diamine] |  |  |  |  |  |  |  |  |  |  |  |  | pH (24 h) ([1]; Medium 50 mM phosphate, pH Buffer 1.6 as printed): 9.4; pH (24 h) ([1]; Medium FaSSGF, pH Buffer 7.4 as printed): 10.2; pH (24 h) ([1]; Medium Water): 10.1; solubility at 24 h ([2]; 50 mM phosphate buffer, pH 1.6, aqueous buffer, Medium 50 mM phosphate, pH Buffer 1.6 as printed): 9.8 mg/mL; solubility at 24 h ([2]; FaSSGF (Fasted State Simulated Gastric Fluid), pH 7.4, fassgf or other biorelevant, Medium FaSSGF, pH Buffer 7.4 as printed): 5.9 mg/mL; solubility ([2]; water): 5.9 mg/mL; solubility at 24 h ([2]; water, Medium Water): 5.1 mg/mL
4 | CCC(CC)c1cc(N[C@H]2CC[C@H](N)C2)n2nccc2n1 [Fumarate III] | 4.5 | 7.2 | 7.3 | 4.1 | 1.6 | 1.7 | >107 | >107 | >48 | >48 | increased |  | 
5 | CCC(CC)c1cc(N[C@H]2CC[C@H](N)C2)n2nccc2n1 [Fumarate II] |  |  |  |  |  |  |  |  |  |  |  | Form III | 
6 | CCC(CC)c1cc(N[C@H]2CC[C@H](N)C2)n2nccc2n1 [Fumarate IV] |  |  |  |  |  |  |  |  |  |  |  | Form III | 
7 | CCC(CC)c1cc(N[C@H]2CC[C@H](N)C2)n2nccc2n1 [Oxalate III] | 2.1 | 6.7 | 6.8 | 1.6 | 1.6 | 1.5 | 55.5 | 38.1 | >392 | >392 | increased |  | 
8 | CCC(CC)c1cc(N[C@H]2CC[C@H](N)C2)n2nccc2n1 [Oxalate II] |  |  |  |  |  |  |  |  |  |  |  | Form II | 5 days AAC (XRPD form) [3]: Form II
9 | CCC(CC)c1cc(N[C@H]2CC[C@H](N)C2)n2nccc2n1 [Tosylate III] | 2.7 | 6.8 | 7.0 | 1.0 | 1.9 | 2.1 | 8.7 | 2.92 | >129 | >129 | increased |  | 
10 | CCC(CC)c1cc(N[C@H]2CC[C@H](N)C2)n2nccc2n1 [Tosylate amorphous] |  |  |  |  |  |  |  |  |  |  |  | Form II | 5 days AAC (XRPD form) [3]: Form II
11 | CCC(CC)c1cc(N[C@H]2CC[C@H](N)C2)n2nccc2n1 [amorphous product] |  |  |  |  |  |  |  |  |  |  |  |  | XRD of amorphous product after about 45 minutes [4]: began crystalizing
12 | CCC(CC)c1cc(N[C@H]2CC[C@H](N)C2)n2nccc2n1 [fumarate salt] |  |  |  |  |  |  |  |  |  |  |  | Form III | 
